Measured values taken from patent US7517891B2, “Camptothecin derivatives and improved synthetic methods” (Glyconix Corporation, priority 2005, dated 2009).

- melting point: 172 to 176 °C (dec.)
SMILES: CC[C@@]1(OC(=O)CCCBr)C(=O)OCc2c1cc1n(c2=O)Cc2c-1nc1ccccc1c2CO
